System: 898857-211-R-J1-PDC complex spheroids, growth % test/control
Experiment: Anticancer human tumor 898857-211-R-J1-PDC patient-derived melanoma cell line growth inhibition [RAS]
Conditions: for IC50: curve of first compound; for viability, T/C: stronger effect = lower value; active means viability on the fitted dose curve at most 10% of control; inactive means the rest
Method in brief: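 Agents were tested in combination matrices in half-log decrements from a top concentration at or near clinical Cmax (10 microM if undetermined). Targets were multi-cell spheroids of tumour lines plus HUVEC and MSC stromal cells.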

[1] = second compound 0.00316 µM, first compound 0.0316 µM
[2] = second compound 0.00316 µM, first compound 0.1 µM
[3] = second compound 0.00316 µM, first compound 0.316 µM
[4] = second compound 0.00316 µM, first compound 1 µM
[5] = second compound 0.00316 µM, first compound 3.16 µM
[6] = second compound 0.00316 µM, first compound 10 µM
[7] = second compound 0.01 µM, first compound 0.0316 µM
[8] = second compound 0.01 µM, first compound 0.1 µM
[9] = second compound 0.01 µM, first compound 0.316 µM
[10] = second compound 0.01 µM, first compound 1 µM
[11] = second compound 0.01 µM, first compound 3.16 µM
[12] = second compound 0.01 µM, first compound 10 µM
[13] = second compound 0.0316 µM, first compound 0.0316 µM
[14] = second compound 0.0316 µM, first compound 0.1 µM
[15] = second compound 0.0316 µM, first compound 0.316 µM
[16] = second compound 0.0316 µM, first compound 1 µM
[17] = second compound 0.0316 µM, first compound 3.16 µM
[18] = second compound 0.0316 µM, first compound 10 µM
[19] = second compound 0.1 µM, first compound 0.0316 µM
[20] = second compound 0.1 µM, first compound 0.1 µM
[21] = second compound 0.1 µM, first compound 0.316 µM
[22] = second compound 0.1 µM, first compound 1 µM
[23] = second compound 0.1 µM, first compound 3.16 µM
[24] = second compound 0.1 µM, first compound 10 µM
[25] = second compound 0.316 µM, first compound 0.0316 µM
[26] = second compound 0.316 µM, first compound 0.1 µM
[27] = second compound 0.316 µM, first compound 0.316 µM
[28] = second compound 0.316 µM, first compound 1 µM
[29] = second compound 0.316 µM, first compound 3.16 µM
[30] = second compound 0.316 µM, first compound 10 µM
[31] = second compound 1 µM, first compound 0.0316 µM
[32] = second compound 1 µM, first compound 0.1 µM
[33] = second compound 1 µM, first compound 0.316 µM
[34] = second compound 1 µM, first compound 1 µM
[35] = second compound 1 µM, first compound 3.16 µM
[36] = second compound 1 µM, first compound 10 µM
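Further: spheroids exposed to compound for seven days before readout.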
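Wherever viability, T/C is given: 100% = DMSO vehicle control wells.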

CC1(O)CCCC1n1c(=O)c(C(F)F)cc2cnc(NC3CCN(S(C)(=O)=O)CC3)nc21 (centres undefined) + C=CC(=O)N1CCN(c2nc(OCC3CCCN3C)nc3c(F)c(-c4nc(N)cc(C)c4C(F)(F)F)c(Cl)cc23)C(C)C1
286 nM: IC50 (second compound 0.1 µM)
300 nM: IC50 (second compound 0.01 µM)
230 nM: IC50 (second compound 1 µM)
252 nM: IC50 (second compound 0.0316 µM)
228 nM: IC50 (second compound 0.00316 µM)
315 nM: IC50 (second compound 0.316 µM)
inactive: viability, T/C [1] 103% | viability, T/C [2] 57.7% | viability, T/C [3] 45.6% | viability, T/C [4] 43.5% | viability, T/C [5] 47.1% | viability, T/C [6] 19.7% | viability, T/C [7] 75.3% | viability, T/C [8] 61% | viability, T/C [9] 39% | viability, T/C [10] 44.9% | viability, T/C [11] 39.7% | viability, T/C [12] 17.4% | viability, T/C [13] 87.6% | viability, T/C [14] 57.1% | viability, T/C [15] 42.4% | viability, T/C [16] 45.6% | viability, T/C [17] 43.7% | viability, T/C [18] 19.3% | viability, T/C [19] 92.1% | viability, T/C [20] 55.5% | viability, T/C [21] 47.9% | viability, T/C [22] 46.1% | viability, T/C [23] 47.7% | viability, T/C [24] 18.6% | viability, T/C [25] 109% | viability, T/C [26] 67% | viability, T/C [27] 46% | viability, T/C [28] 44.7% | viability, T/C [29] 45.2% | viability, T/C [30] 17.5% | viability, T/C [31] 115% | viability, T/C [32] 59.5% | viability, T/C [33] 46.3% | viability, T/C [34] 36% | viability, T/C [35] 42.8% | viability, T/C [36] 10.9%

CCC(CC)c1cc(NC2CCC(N)C2)n2nccc2n1 (centres undefined) + C=CC(=O)N1CCN(c2nc(OCC3CCCN3C)nc3c(F)c(-c4nc(N)cc(C)c4C(F)(F)F)c(Cl)cc23)C(C)C1
active: viability, T/C [6] 0.2% | viability, T/C [11] 0.97% | viability, T/C [12] 0.25% | viability, T/C [17] 1.12% | viability, T/C [18] 0.25% | viability, T/C [23] 1.01% | viability, T/C [24] 0.21% | viability, T/C [29] 1.11% | viability, T/C [30] 0.26% | viability, T/C [35] 0.94% | viability, T/C [36] 0.24%
851 nM: IC50 (second compound 0.01 µM)
1160 nM: IC50 (second compound 1 µM)
1220 nM: IC50 (second compound 0.1 µM)
806 nM: IC50 (second compound 0.00316 µM)
1130 nM: IC50 (second compound 0.0316 µM)
1300 nM: IC50 (second compound 0.316 µM)
inactive: viability, T/C [1] 119% | viability, T/C [2] 97.5% | viability, T/C [3] 81.5% | viability, T/C [4] 49.1% | viability, T/C [5] 1.15% | viability, T/C [7] 114% | viability, T/C [8] 97.8% | viability, T/C [9] 81.7% | viability, T/C [10] 51% | viability, T/C [13] 104% | viability, T/C [14] 104% | viability, T/C [15] 102% | viability, T/C [16] 56% | viability, T/C [19] 95.5% | viability, T/C [20] 110% | viability, T/C [21] 101% | viability, T/C [22] 60% | viability, T/C [25] 123% | viability, T/C [26] 119% | viability, T/C [27] 104% | viability, T/C [28] 66.3% | viability, T/C [31] 120% | viability, T/C [32] 117% | viability, T/C [33] 101% | viability, T/C [34] 59.7%
